Assay [1] has as its system BM-derived cultures (CD45+/CD11b+ macrophages, Sca1+ monocytes). Description: Flow cytometry of BM-derived expansion cultures. It counts as cell-based, mouse. Particulars: BM-derived cultures, 1 μM up to P2. As to the method: (§1) c. Expansion of Human BM and Mouse BM and CB-Derived Cells Assay • 1. […] Cultures were allowed to grow for 10-14 days until adherent cells achieved 70 to 80% confluence. Mouse cultures were maintained under normal (5% CO2) or hypoxic conditions (5% CO2/5% O2) at 37 C in a cell culture incubator. Human cultures were maintained under 5% CO2 at 37 C in a humidified cell culture incubator. • 3. Adherent cells were passaged by releasing cultures from flask. Cultures were washed with 5 mL PBS and then 5 mL of 0.25% trypsin solution ([…] catalogue #07901) was added and the flasks incubated for 10 min at 37 C. To each flask, 5 mL complete medium was added to stop trypsin activity. • 4. Released cells were collected into a tube and centrifuged at 300×g for 5 minutes. • 5. Cells were resuspended in 2 mL of medium and counted using a hemocytometer. • 6. […] P1 cultures were incubated until they reached 70 to 80% confluence. • 8. Passaged cultures can be used at any time from P0 to P10 as needed for different applications.
(§2) d. Flow Cytometry Analysis • 1. Cultures of BM and CB-derived cells were trypsinized for 10 minutes and an equal volume of complete medium was added to cultures to stop trypsin activity • 2. Cell suspension was filtered through a 40 μm strainer, and cells counted using a hemocytometer • 3. Suspension was spun down at 300×g for 5 minutes. • 4. Supernatant was removed and cell pellet resuspended in FACS buffer (PBS with 2% FBS and 1 mM EDTA) • 5. A total of 1×10^5 cells in 300 μL FACS buffer was used for each flow cytometry analysis tube, including unstained, viability, compensation, and isotype controls. • 6. Cell suspensions were stained with fluorophore-labeled antibodies against CD45, CD11b, and Sca1, CD29, and viability dye. • 7. Cell suspensions were analyzed on a flow cytometer using compensation and isotype control to determine laser voltage and gating. • 8. Samples were gated on viable CD45^+ cells and 10,000 events per sample were collected. Alternatively, cells were gated on viable CD45^− cells and out of this gate the proportion of CD29+/Sca1^+ cells obtained.

In assay [2] the test system is CB-derived cultures (CD45+/CD11b+ macrophages, Sca1+ monocytes). Put plainly: Flow cytometry of CB-derived expansion cultures. It is filed as cell-based, mouse. Particulars: CB-derived cultures, 1 μM up to P2. As to the method:
as §1, §2
On the technique in general: Flow cytometry measures light scatter and fluorescence of single cells or particles in a stream.

Each structure is given as a SMILES string. Where only a bound is given, the exact number is not on record here.

As for `COc1cc(Oc2ccnc3cc(OC)c(OC)cc23)ccc1NC(=O)NC(C)c1nccs1` (centres unmarked) [KI20227, N-{4-[(6,7-dimethoxy-4-quinolyl)oxy]-2-methoxyphenyl}-N0-[1-(1,3-thiazole-2-yl)ethyl]urea], the “CD45+/CD11b+ mature macrophages, of viable cells” value in assay [1] and in assay [2] was less than 2% each time.

The record behind these values is patent US10017741B2, “Compositions and methods for obtaining enriched mesenchymal stem cell cultures” (StemCell Technologies Inc., priority 2013, dated 2018).
